From PMC11538690, “Lysosome‐Targeted Bifunctional Therapeutics Induce Autodynamic Cancer Therapy” (Advanced Science, 2024)

Key:
HT29 cells [1] = assay: Cellular uptake by fluorescence microscopy; format: cell-based, human; conditions: 20 µM, 2 h, 37 °C; NIR fluorescence microscopy
Protocol: (§1) Figure 2 In vitro cellular evaluations of ZWPro in cancer cells. a) Cytotoxicity assay showing HT29, MCF7, L929, and NIH3T3 cells treated with 20 µM of ZW and ZWPro for 2 and 24 h, respectively, followed by an assessment of cell viability using the water‐soluble tetrazolium assay (n = 5, mean ± s.e.m.). b) Cellular uptake and intracellular endosomal localization of ZW and ZWPro were observed by treating HT29 and L929 cells with 20 µM of ZW and ZWPro. […] The internalization index was determined in 2–9 photographic areas (ns, not significant, *p < 0.05 based on two‐way analysis of variance followed by Bonferroni's multiple comparison test). c) Inhibition assay of cellular uptake of ZWPro to determine the entry mechanisms in HT29 cells. Cultured cells were incubated with bromsulphthalein for 20 min and then incubated with ZWPro (20 µM) in media for 15 min. […] The co‐localizing pixels (%) were calculated by dividing the area of overlap between ZWPro and LysoTracker by the total area of the LysoTracker, respectively. […]
(§2) Fluorescence microscopic assessments were performed to compare the intracellular uptake of ZW and ZWPro in cancerous and normal cells. […] The fluorescent intensity of each cell was measured using ImageJ (version 1.51j8, National Institutes of Health, Bethesda, MD, USA). The outline of each cell was determined on a phase‐contrast image.

HT29 tumor-bearing mice [2] = assay: In vivo tumor reduction test; conditions: i.v. 50 nmol (9.5 mg kg−1) twice; weighed every other day for 30 days; versus control group
Protocol: Owing to the cancer‐specific cytotoxicity of ZWPro, the in vivo tumor targetability and theranostic capacity of ZWPro were evaluated in HT29 tumor‐bearing mice. Preliminary studies were conducted to determine the optimal dosage of ZWPro to achieve effective anticancer activity. […] To investigate the antitumor impact, mice were intravenously injected with PBS (150 µL) (control group), and with ZWPro (150 µL) or ZW (150 µL, 50 nmol at 9.5 mg k^−1g). […] The tumor size increased slightly after the treatment on d 0. […] Stable mouse body weights were observed across all experimental groups. After 30 d of treatment with ZWPro, tumors were smaller than those in the ZW and PBS groups (Figure 4g).
Figure 4 In vivo, tumor growth inhibition and studies in tumor‐induced mice subcutaneously injected with HT29 cells and treated with ZWPro. a) Schematic of the treatment schedule and experimental design of PBS, ZW, and ZWPro. […] PK parameters of ZW and ZWPro (0.3 µmol kg^−1) (t1/2α; distribution half‐life, t1/2β; elimination half‐life, AUC; area under the curve, Vd volume of distribution, and urinary excretion (% injected dose, %ID)) were calculated using the software Prism 9. […] (Exposure time = 100 ms, n = 3, mean ± s.e.m.) The SBR was calculated by the fluorescence intensity of each organ (Or) against the system background (Exposure time = 1000 ms, n = 3, mean ± s.e.m.). […]

MCF7 cells [3] = assay: WST-8 cytotoxicity assay; format: cell-based; conditions: 5, 10 and 20 µM, 24 h (Figure S4); n = 5
Protocol: as §1, with “cells.” for “cells. Cultured cells were incubated with bromsulphthalein for 20 min and then incubated with ZWPro (20 µM) in media for 15 min.”
(§3) To evaluate the cytotoxicity of ZW and ZWPro in cancer and normal cells, HT29, MCF7, L929, and NIH 3T3 cells were collected by trypsinization and resuspended in 96‐well plates at a concentration of 10 000 cells/well in fresh growth media and incubated for 1 d at 37 °C under 5% CO2 conditions. […] Absorption was subsequently measured at 450 nm on a microplate reader (Thermo Scientific, Varioskan LUX multimode). […]

MCF7 cells [4] = assay: Cellular uptake by fluorescence microscopy; format: cell-based; conditions: 20 µM, 2 h, 37 °C; fluorescent microscopy
Protocol: (§4) Fluorescence microscopic assessments were performed to compare the intracellular uptake of ZW and ZWPro in cancerous and normal cells. Two sets of cathepsin B‐expressing cancer cells (HT29 and MCF7) and 2 sets of normal cells (L929 and NIH3T3) were seeded in a confocal dish and incubated at 37 °C for 1 d before treatment. Subsequently, 20 µM ZWPro and ZW were added to the cells for 2 h. Subsequently, 50 nM of LysoTracker Green (a fluorescent dye that selectively labels lysosomes) was added for 30 min. Following incubation with the dye, the cells were resuspended with fresh media after they were rinsed 3 times with 1X PBS to remove any remaining dye, and imaging was performed. To determine the role of organic anion transporter peptides (OATPs) in the ZWPro uptake process, HT29 cells were pretreated with BSP (250 µM, Sigma–Aldrich, 167 207) for 20 min in the inhibition assay. Cells were then incubated with 20 µM of ZWPro at 37 °C for 15 min. After washing, cell images were obtained. Images were obtained using a Nikon Eclipse inverted microscope, DS‐Ri2, or DS‐Qi2 (Ex/Em, 754/774 nm; exposure time, 2 s). The fluorescent intensity of each cell was measured using ImageJ (version 1.51j8, National Institutes of Health, Bethesda, MD, USA). The outline of each cell was determined on a phase‐contrast image.
(§5) Figure S5. Cellular uptake and intracellular localization of ZW and ZWPro. […]

[5] = cited from earlier work
Excerpt: The zwitterionic fluorophore ZW (emitting NIR fluorescence at 800 nm) was synthesized as reported previously.^[ [6] ^] […] To create the ZWPro conjugate, ZW (1.2 equiv.) was covalently attached to Pro using N‐Hydroxysuccinimide (NHS) ester and led to a stable amide bond formation (Figure 1b). Pro peptides were en ...

HT29 cells [6] = assay: WST-8 cytotoxicity assay; format: cell-based, human; conditions: 5, 10 and 20 µM, 24 h (Figure S4); n = 5
Protocol: as §1, with “cells.” for “cells. Cultured cells were incubated with bromsulphthalein for 20 min and then incubated with ZWPro (20 µM) in media for 15 min.”
as §3

[7] = Photostability test under 760 nm laser; format: physicochemical; conditions: all tested solvents, up to 4 h
Protocol: Photostability assay was conducted to compare ZW800‐1C with ZWPro in PBS and also evaluated ZWPro in distilled water and 10% FBS in PBS exposed to continuous irradiation using a 760 nm laser diode at 4 mW cm^−2, with white light (400–650 nm) at 40 000 lux and imaged up to 4 h. The fluorescence intensity (FI) signal (%) was calculated by measured values with ImageJ version 1.53t using images captured at each time point. Fluorescence values of the quenching assay were conducted at different concentration points at 0 and 4 h to determine the quenching concentration and to assess any significant photodegradation or photobleaching effects.
The data, presented as mean ± SD, assessed the fluorescence image by measuring regions of interest (ROI) and comparing fluorescence intensity against the initial fluorescence signal.
Figure S3. Optical property characterization of the ZWPro (a) Absorbance and Fluorescence spectra of ZWPro and optical properties of Pro, ZW800-1C, and ZWPro. (b) Stability test of ZWPro with PBS and 10% FBS in PBS until 24 h at 37 °C incubator. (c) Fluorescence image and value are used to determine quenching concentration under a 760nm channel of different concentrations of ZWPro depending on time. Photostability test of (d) ZW800-1C and ZWPro in PBS. (e) Photostability test of ZWPro in different solvents. DW: Distilled water, 10% FBS: Fetal bovine serum in PBS. […]

NIH3T3 cells = assay: Cellular uptake by fluorescence microscopy; format: cell-based, mouse; conditions: 20 µM, 2 h, 37 °C; fluorescent microscopy
Protocol: as §4, §5

L929 cells [8] = assay: Cellular uptake by fluorescence microscopy; format: cell-based, mouse; conditions: 20 µM, 2 h, 37 °C; NIR fluorescence microscopy
Protocol: as §1, §2

HT29 tumor-bearing mice [9] = assay: Time-dependent in vivo NIR tumor imaging and biodistribution; conditions: 20 nmol i.v., real-time NIR fluorescence imaging
Excerpt: Figure 4 In vivo, tumor growth inhibition and studies in tumor‐induced mice subcutaneously injected with HT29 cells and treated with ZWPro. a) Schematic of the treatment schedule and experimental design of PBS, ZW, and ZWPro. Biodistribution and pharmacokinetic (PK) parameters of targeted ZW and ZWPro in normal mice. PK parameters of ZW and ZWPro (0.3 µmol kg^−1) (t1/2α; distribution half‐life, t1/2β; elimination half‐life, AUC; area under the curve, Vd volume of distribution, and urinary excretion (% injected dose, %ID)) were calculated using the software Prism 9. Urinary excretion occurred at 48 h post‐injection (n = 2–3 per group, mean ± s.e.m.). (b) In total, 20 nmol of each compound was injected into BLAB/C nude mice (weights = 20–25 g) and time‐dependent imaging was performed post‐injection. c) Color and NIR fluorescence in vivo images of ZW and ZWPro (0.3 µmol kg^−1) were taken at different time intervals. d) Tumor‐to‐background (TBR) ratios of tumors (white dotted circles in (c)) compared with muscles obtained from at each time point; and e) signal‐to‐background (SBR) outcomes were calculated using NIR images of resected organs at 48 h post‐injection. (Exposure time = 100 ms, n = 3, mean ± s.e.m.) The SBR was calculated by the fluorescence intensity of each organ (Or) against the system background (Exposure time = 1000 ms, n = 3, mean ± s.e.m.). […]

NIH 3T3 cells = assay: WST-8 cytotoxicity assay; format: cell-based, mouse; conditions: 5, 10 and 20 µM, 24 h (Figure S4); n = 5
Protocol: (§6) Figure 2 In vitro cellular evaluations of ZWPro in cancer cells. a) Cytotoxicity assay showing HT29, MCF7, L929, and NIH3T3 cells treated with 20 µM of ZW and ZWPro for 2 and 24 h, respectively, followed by an assessment of cell viability using the water‐soluble tetrazolium assay (n = 5, mean ± s.e.m.). b) Cellular uptake and intracellular endosomal localization of ZW and ZWPro were observed by treating HT29 and L929 cells with 20 µM of ZW and ZWPro. […] The internalization index was determined in 2–9 photographic areas (ns, not significant, *p < 0.05 based on two‐way analysis of variance followed by Bonferroni's multiple comparison test). c) Inhibition assay of cellular uptake of ZWPro to determine the entry mechanisms in HT29 cells. Cultured cells were incubated with bromsulphthalein for 20 min and then incubated with ZWPro (20 µM) in media for 15 min. Data are presented as means ± standard deviations (n = 7–8) **p < 0.01 based on Welch's t‐test. d) Findings from HT29 human colorectal adenocarcinoma cells and L929 fibroblast cell lines co‐stained with the lysosome marker LysoTracker Green. Co‐localization occurs at specific time intervals during imaging. The co‐localizing pixels (%) were calculated by dividing the area of overlap between ZWPro and LysoTracker by the total area of the LysoTracker, respectively. Scale bars: 10 µm.
(§7) To evaluate the cytotoxicity of ZW and ZWPro in cancer and normal cells, HT29, MCF7, L929, and NIH 3T3 cells were collected by trypsinization and resuspended in 96‐well plates at a concentration of 10 000 cells/well in fresh growth media and incubated for 1 d at 37 °C under 5% CO2 conditions. After the cells were completely attached to the walls, the original medium was discarded and replaced with a 200 µL fresh culture medium which contained different concentrations of ZW and ZWPro. Cells were then cultured in a constant temperature incubator for 2 and 24 h. EZ‐Cytox solution (10%) was then added to each well, and the plates were incubated at 37 °C in a 5% CO2 incubator for 2 h in the dark. Cells were then exposed to a digital orbital shaker (Scilab Instruments Co, No. SSO‐2D) at 200 rpm. Absorption was subsequently measured at 450 nm on a microplate reader (Thermo Scientific, Varioskan LUX multimode). […] Statistical analysis was conducted using the software GraphPad Prism 8.

L929 cells [10] = assay: WST-8 cytotoxicity assay; format: cell-based, mouse; conditions: 5, 10 and 20 µM, 24 h (Figure S4); n = 5
Protocol: as §6, §7

| Compound | cellular uptake / internalization (in words) (HT29 cells [1]) | body weight change (in words) (HT29 tumor-bearing mice [2]) | toxicity (in words) (MCF7 cells [3]) | cellular uptake / internalization (in words) (MCF7 cells [4]) | plasma protein binding (in words) [5] | toxicity (in words) (HT29 cells [6]) | photostability (in words) [7] | cellular uptake / internalization (in words) (NIH3T3 cells) | cellular uptake / internalization (in words) (L929 cells [8]) | tumor targeting / accumulation (in words) (HT29 tumor-bearing mice [9]) | toxicity (in words) (NIH 3T3 cells) | toxicity (in words) (L929 cells [10]) |
| --- | --- | --- | --- | --- | --- | --- | --- | --- | --- | --- | --- | --- |
| CC1(C)C(/C=C/C2=C(c3ccc(CCC(=O)O)cc3)C(=C/C=C3/N(CCC[N+](C)(C)C)c4ccc(S(=O)(=O)O)cc4C3(C)C)/CCC2)=[N+](CCC[N+](C)(C)C)c2ccc(S(=O)(=O)O)cc21 [ZW, ZW800‐1C] | not internalized | neither ZWPro nor ZW resulted in weight loss | negligible toxicity | does not show internalization | low‐plasma protein binding | negligible toxicity | strong photostability | does not show internalization | not internalized | no tumor specificity or cell penetration ability | negligible toxicity | negligible toxicity |
| Protamine |  |  | negligible toxicity |  |  | negligible toxicity |  |  |  |  | negligible toxicity | negligible toxicity |
